# How the values were obtained:
# [1] = Water activity value of pharmaceutical additives, humidity conditions versus dry state; assay type: physicochemical; conditions: N = 3; for Water activity value, Opened / Water activity value, Sealed: additive alone; for Water activity value, Opened: 25° C. and 60% RH (opened) for 3 days; for Water activity value, Sealed: in bottles at 25° C. for 3 days in the presence of a desiccant; for Water activity value, Difference: opened minus sealed
# Protocol: A water activity meter (AQUA LAB Series 4TE (AQUA LAB)) was used to measure the water activity value of each pharmaceutical composition (including a capsule shell) at 25° C.
# Pharmaceutical additives (5000 mg each) used in Examples 4 to 11 and Comparative Examples 1 to 2 were allowed to stand in bottles (30 mL) at 25° C. for 3 days in the presence of a desiccant (2 g), and the water activity value was measured under the same conditions as those of Experimental Example 1. Further, the same samples were allowed to stand in bottles under storage conditions of 25° C. and 60% RH (opened) for 3 days, and the water activity value was measured under the same conditions as those of Experimental Example 1
# The difference between the water activity value after the storage in the opened state and the water activity value after the storage in the sealed state is summarized in Table 7.
# [2] = Stability of mixtures with pharmaceutical additives, sealed bottles in aluminum bags, 25° C. or 40° C., related substance (HPLC); assay type: physicochemical; conditions: dimer of compound A (RRT about 1.34), N = 2, values less than 0.05% (quantitative limit) are reference values
# Protocol: (§1) The amounts of generated related substances were measured by a high performance liquid chromatographic method (an HPLC method). The amount of a related substance is calculated by measuring the peak area of each related substance contained in a pharmaceutical composition by the HPLC method, and dividing the peak area of a dimer of compound A (a related substance detected at a relative retention time of about 1.34) by the total peak area of all related substances, including compound A or a pharmaceutically acceptable salt thereof and the dimer of compound A. • Measurement wavelength: 210 nm • Column: YMC-Triart C18 (4.6 mm×150 mm, 3 μm) • Column temperature: a constant temperature around 40° C. • Mobile phase: A mixed solution of 45 mM perchloric acid aqueous solution and acetonitrile • Flow rate: about 1.2 mL/min. • Injection amount: 10 μg (corresponding to compound A) (Measurement of Water Activity)
# The mixtures obtained in Examples 4 to 11 and Comparative Examples 1 to 2, as well as compound A monomethanesulfonate, were put into plastic bottles. […] After the storage, the amount of a related substance (the amount of a dimer of compound A at a relative retention time of about 1.34) was measured under the same conditions as those of Experimental Example 1. […]
# [3] = Stability of mixture with milled lactose hydrate in capsules, sealed plastic bottles, 25° C. and 60% RH, related substance (HPLC); assay type: physicochemical; conditions: dimer of compound A (RRT about 1.34)
# Protocol: as §1
# After 1.171 mg of compound A monomethanesulfonate and 98.829 mg of milled lactose hydrate (Pharmatose 200 M, DFE Pharma) were mixed, the obtained mixture was filled into hypromellose capsules. […] After the storage, the amount of a related substance (the amount of a dimer of compound A at a relative retention time of about 1.34) was measured under the same conditions as those of Experimental Example 1. […]
# [4] = test system: epidermal growth factor receptor (EGFR) mutant kinase; conditions: disclosed in Patent literature 1 (WO 2013/108754); cited from earlier work
Structure (SMILES),"Water activity value, Opened [1]","Water activity value, Sealed [1]","Water activity value, Difference [1]","Amount of related substance, 25° C., After 1 month ([2]; 25° C.) [%]","Amount of related substance, 40° C., After 1 month ([2]; 40° C.) [%]","Amount of related substance, 25° C. · 60% RH After 1 month [3] [%]",inhibitory action on an epidermal growth factor receptor (EGFR) mutant kinase [4]
O.OC[C@H]1O[C@@H](O[C@H]2[C@H](O)[C@@H](O)C(O)O[C@@H]2CO)[C@H](O)[C@@H](O)[C@H]1O (stereo partly shown) [Lactose hydrate],0.46,0.30,0.16,,,,
OC[C@H]1O[C@H](O[C@H]2O[C@H](CO)[C@@H](O)[C@H](O)[C@H]2O)[C@H](O)[C@@H](O)[C@@H]1O [Trehalose],0.40,0.32,0.08,,,,
"C=CC(=O)N1CC[C@@H](Oc2nc(Nc3ccc(N4CCC(N5CCN(C)CC5)CC4)cc3)c(C(N)=O)nc2CC)C1.CS(=O)(=O)O [Compound A monomethanesulfonate (alone), 5-{[(3R)-1-acryloylpyrrolidin-3-yl]oxy}-6-ethyl-3-({4-[4-(4-methylpiperazin-1-yl)piperidin-1-yl]phenyl}amino)-pyrazine-2-carboxamide monomethanesulfonate]",,,,0.03,0.03,0.44,
OC[C@@H](O)[C@@H](O)[C@H](O)[C@H](O)CO [Mannitol],0.45,0.35,0.10,,,,
"C=CC(=O)N1CC[C@@H](Oc2nc(Nc3ccc(N4CCC(N5CCN(C)CC5)CC4)cc3)c(C(N)=O)nc2CC)C1 [compound A, 5-{[(3R)-1-Acryloylpyrrolidin-3-yl]oxy}-6-ethyl-3-({4-[4-(4-methylpiperazin-1-yl)piperidin-1-yl]phenyl}amino)-pyrazine-2-carboxamide]",,,,,,,confirmed
OC[C@H]1O[C@@](CO)(O[C@H]2O[C@H](CO)[C@@H](O)[C@H](O)[C@H]2O)[C@@H](O)[C@@H]1O [Sucrose],0.43,0.38,0.05,,,,

# — patent publication US10188737B2, “Stabilized pharmaceutical composition” (ASTELLAS PHARMA INC., priority 2015, dated 2019)
